CC(=O)Nc1ccccc1[N+](=O)[O-]
solubility (mole fraction)
Conditions	278.15 K	283.15 K	288.15 K	293.15 K	298.15 K	303.15 K	308.15 K	313.15 K	318.15 K	323.15 K
in 1,4-dioxane	–	–	0.13	0.147	0.165	0.186	0.211	0.244	0.284	0.343
in DMF	0.167	0.178	0.192	0.213	0.238	0.266	0.295	0.327	0.373	0.426
in NMP	0.195	0.215	0.239	0.268	0.299	0.33	0.367	0.404	0.445	0.491
in acetonitrile	0.0156	0.0176	0.021	0.0248	0.0302	0.0387	0.0511	0.0675	0.0932	0.124
in cyclohexane	–	0.00106	0.00133	0.00167	0.00216	0.00275	0.00357	0.00474	0.00634	0.0084
in ethanol	0.0143	0.0163	0.0188	0.0226	0.0276	0.0323	0.0382	0.0447	0.0516	0.0615
in ethyl acetate	0.0478	0.0545	0.0662	0.079	0.094	0.112	0.135	0.163	0.21	0.263
in ethylene glycol	0.00464	0.00517	0.00599	0.00714	0.00855	0.0103	0.0126	0.0155	0.0187	0.0224
in isobutanol	0.00896	0.00984	0.0115	0.0134	0.0162	0.0202	0.0246	0.0302	0.0374	0.0483
in isopropanol	0.00743	0.00851	0.00991	0.0121	0.0151	0.0184	0.0227	0.0279	0.036	0.0468
in methanol	0.0181	0.021	0.0248	0.0289	0.0331	0.0394	0.0463	0.0558	0.0703	0.0926
in n-butanol	0.00975	0.011	0.0127	0.016	0.0196	0.0232	0.028	0.0341	0.0422	0.0529
in n-heptanol	0.00627	0.00721	0.00829	0.0105	0.0129	0.0163	0.0209	0.0261	0.0337	0.042
in n-propanol	0.0129	0.0144	0.0167	0.0204	0.0245	0.0285	0.0331	0.0393	0.0468	0.0578
in water	9.9e-05	0.000128	0.00016	0.000201	0.000249	0.00032	0.000412	0.000521	0.000662	0.000824
